Reference: ChEMBL document CHEMBL5604062, “ASAP - ZIKV NS2B-NS3 protease fluorescence dose response” (2024)
“And” between values parts separate entries of the source, which are not always exact repeats. Equal values may be shown once.

target: Nonstructural protein 3 (Zika virus, UniProt A0A024AXB9); test: Functional biochemical assay to identify treatments for viral infectious disease that targets Zika NS2B-NS3 protease. Utilizing a direct enzyme activity measurement method, reading the fluorescence intensity is used to characterize the relative potency of inhibitors as IC50.; set-up: species or system PRVABC59
Sequence (A0A024AXB9 whole entry): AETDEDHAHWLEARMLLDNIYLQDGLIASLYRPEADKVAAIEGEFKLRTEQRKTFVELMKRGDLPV

Q: Which IC50 does the source give for `CS(=O)(=O)c1ccc(-c2cccc([C@H](NC(=O)OCc3ccccc3)C(=O)Nc3cccc(CN)c3)c2)cc1` here?
A: 70.5 µM

Q: `NCc1cc(CO)cc([C@H]2C[C@@H]2c2cc(Cl)cc(NC(=O)OCc3ccccc3)c2)c1` was tested. Which IC50 did it give?
A: 10.4 µM

Q: With `CCCCS(=O)(=O)N1CCC([C@H](NC(=O)OCc2ccccc2)C(=O)Nc2cccc(CN)c2)CC1` as the compound, how does the IC50 read?
A: > 99.5 µM

Q: How did the IC50 turn out when `NCc1cccc([C@H]2C[C@@H]2c2cc(Cl)cc(NC(=O)OCc3ccccc3)c2)c1` was run?
A: 7.36 µM and 6.03 µM

Q: Which IC50 does the source give for `NCCc1csc2cc(C(=O)Nc3cc([C@H]4CCOC4)ccn3)ccc12` here?
A: > 25 µM

Q: Which IC50 does the source give for `c1nc(C2CCN(Cc3cc(C4CCOCC4)[nH]n3)CC2)cs1` here?
A: > 99.5 µM

Q: How did the IC50 turn out when `O=C(Nc1ccc2c(c1)CNC2)c1cc(F)cc2[nH]c(-c3ccc(F)cc3)nc12` was run?
A: 0.022 µM and 0.023 µM and 0.014 µM

Q: With `CCCCCNC(=O)c1cc(Cl)ccc1NS(=O)(=O)c1ccc(Oc2ccccc2Cl)cc1` as the compound, how does the IC50 read?
A: > 99.5 µM

Q: With `CCn1ncc(-c2noc3nc(C)cc(C(=O)Nc4cccc(CN)c4)c23)c1C` as the compound, how does the IC50 read?
A: > 99.5 µM

Q: `O=C(Nc1cc(Cl)cc(-c2cccc3c(C(=O)O)cccc23)c1)OCc1ccccc1` was tested. Which IC50 did it give?
A: 23.1 µM

Q: With `NCc1cccc(NC(=O)[C@H]2COC3(CCOCC3)N2C(=O)OCc2ccccc2)c1` as the compound, how does the IC50 read?
A: > 99.5 µM

Q: For `c1cc2sccc2c(N2CCN(Cc3ccc4cn[nH]c4c3)CC2)n1`, which IC50 is on record?
A: > 99.5 µM

Q: `N#CC1(c2ccccc2)CCN(Cc2c[nH]c3ccccc23)CC1` was tested. Which IC50 did it give?
A: > 99.5 µM

Q: For `O=C(Nc1cc(Cl)cc(C(=O)Nc2cccc(CC3CCNCC3)c2)c1)OCc1ccccc1`, which IC50 is on record?
A: > 99.5 µM

Q: `O=C(Nc1ccc2c(c1)CNC2)c1nc(C(F)(F)F)cs1` was tested. Which IC50 did it give?
A: > 25 µM

Q: Which IC50 does the source give for `O=C1OCc2ccc(NC(=O)[C@H]3CNCc4[nH]ncc43)cc21` here?
A: > 25 µM

Q: How did the IC50 turn out when `O=C1Cc2c(cccc2C(=O)Nc2ccc3[nH]nnc3c2)N1` was run?
A: > 25 µM

Q: With `CCc1nccn1CC(=O)Nc1ccc2c(c1)CNC2` as the compound, how does the IC50 read?
A: > 99.5 µM

Q: Which IC50 does the source give for `NCc1cccc([C@H](C#CCO)Nc2cc(Cl)cc(NC(=O)OCc3ccccc3)c2)c1` here?
A: 15.6 µM

Q: With `O=Cc1ccc(N2CCC(C(=O)NCCc3ccccc3[N+](=O)[O-])CC2)cc1` as the compound, how does the IC50 read?
A: > 50.2 µM

Q: For `COC(=O)c1n[nH]cc1CN1CCC(c2nc3ccccc3s2)CC1`, which IC50 is on record?
A: > 99.5 µM

Q: Which IC50 does the source give for `CN(C)Cc1csc(NC(=O)c2cc(Cl)cc(NC(=O)OCc3ccccc3)c2)n1` here?
A: > 99.5 µM

Q: How did the IC50 turn out when `O=C(Nc1ccc2c(c1)CNC2)c1cc(F)cc2[nH]ncc12` was run?
A: 0.04 µM and 0.049 µM

Q: With `N#Cc1ccc(C(=O)Nc2ccc3c(c2)CNC3)cc1Cl` as the compound, how does the IC50 read?
A: 11.4 µM

Q: `NCc1cccc(NC(=O)[C@@H](Cc2ccccc2)NC(=O)OCc2ccccc2)c1` was tested. Which IC50 did it give?
A: > 99.5 µM

Q: For `NS(=O)(=O)c1ccc(N2CCC=C(c3cccc(O)c3)C2)c2ncccc12`, which IC50 is on record?
A: > 99.5 µM

Q: For `O=C1Cc2c(cccc2C(=O)N[C@H]2COc3cc(Br)cnc32)N1`, which IC50 is on record?
A: > 25 µM

Q: How did the IC50 turn out when `CCC1CN(C(=O)Cn2ccnc(N3CC[C@@H](CO)C3)c2=O)C1` was run?
A: > 99.5 µM

Q: With `CO[C@H]1C[C@H](n2ncc3c(C(=O)Nc4ccc5c(c4)CNC5)cc(Cl)cc32)C1` as the compound, how does the IC50 read?
A: 0.054 µM and 0.042 µM

Q: Which IC50 does the source give for `CCn1c(=O)c(N2CC[C@H](CO)C2)nc2ccc(C(N)=O)cc21` here?
A: > 99.5 µM

Q: `c1cnc2c(CN3CCC(c4c[nH]c5cccnc45)CC3)c[nH]c2c1` was tested. Which IC50 did it give?
A: 44.4 µM

Q: `O=C1Cc2c(cccc2C(=O)N[C@H]2C[C@@H](c3ncc[nH]3)C2)N1` was tested. Which IC50 did it give?
A: > 25 µM

Q: Which IC50 does the source give for `CN1C(=O)CC[C@H]1c1nc2c(C(=O)Nc3ccc4c(c3)CNC4)cc(F)cc2[nH]1` here?
A: 0.264 µM

Q: Which IC50 does the source give for `O=S(=O)(Nc1ccc2c(c1)CNC2)c1cccc2[nH]ncc12` here?
A: > 25 µM

Q: Which IC50 does the source give for `Cc1nc(C2CC2)sc1C(=O)Nc1cc(CCCN)ccn1` here?
A: > 25 µM

Q: Which IC50 does the source give for `NCc1cccc(NC(=O)[C@@H](NC(=O)OCc2ccccc2)c2ccc(-c3ccc4scnc4c3)cc2)c1` here?
A: 12.3 µM

Q: With `O=C(Nc1cc(-c2cccnc2)ccn1)c1cc(C2CC2)oc1C1CC1` as the compound, how does the IC50 read?
A: > 25 µM

Q: For `Cc1nn(C)cc1S(=O)(=O)N[C@@H](C(=O)Nc1cccc(CN)c1)c1ccc(OCc2ccccc2)cc1`, which IC50 is on record?
A: > 99.5 µM

Q: For `NCc1cccc(NC(=O)[C@H]2[C@@H]3CC[C@@H](C3)[C@H]2NC(=O)OCc2ccccc2)c1`, which IC50 is on record?
A: 30.8 µM and 30.7 µM

Q: `O=C(Cc1ccc2ncsc2c1)Nc1ccc2c(c1)CNC2` was tested. Which IC50 did it give?
A: > 25 µM

Q: With `O=C(O)c1cc(Cl)ccc1S(=O)(=O)Nc1ccc(CCN2CCCC2)cc1` as the compound, how does the IC50 read?
A: > 99.5 µM

Q: `CC(C)Oc1cc(CN)ccc1NS(=O)(=O)c1ccc(Oc2ccccc2Cl)cc1` was tested. Which IC50 did it give?
A: 64.4 µM

Q: Which IC50 does the source give for `CC(C)(C)c1cc(CN2CCC(c3cscn3)CC2)n[nH]1` here?
A: > 99.5 µM

Q: For `CC(C)(C)c1noc2nc(C(=O)Nc3ccc4c(c3)CNC4)ccc12`, which IC50 is on record?
A: > 25 µM

Q: With `Cc1c(C(=O)Nc2cc(C(=O)N(C)C)ccn2)cc(C2CC2)n1C` as the compound, how does the IC50 read?
A: > 99.5 µM

Q: Which IC50 does the source give for `O=C1Cc2c(cc(Br)cc2C(=O)Nc2ccc3c(c2)C(=O)OC3)N1` here?
A: > 25 µM

Q: How did the IC50 turn out when `CNC(=O)[C@]1(Nc2ccc3c(c2)CNC3)C(=O)Nc2ccc(Cl)cc21` was run?
A: > 25 µM

Q: `CCn1ccc2cc(CN3CCC(c4c[nH]c5cccnc45)CC3)ccc21` was tested. Which IC50 did it give?
A: > 99.5 µM

Q: For `NCc1cccc(NC(=O)c2cc(OCc3ccccc3)ccc2CNC(=O)OCc2ccccc2)c1`, which IC50 is on record?
A: 21.1 µM

Q: Which IC50 does the source give for `COC1CCN(C(=O)c2ccnc(NC(=O)c3cc(C4CC4)n(C)c3C)c2)CC1` here?
A: > 25 µM

Q: How did the IC50 turn out when `NC1(c2cccc(NC(=O)c3cc(Cl)cc(NC(=O)OCc4ccccc4)c3)c2)CCC1` was run?
A: > 99.5 µM

Q: Which IC50 does the source give for `CC(C)(C#N)CS(=O)(=O)N1CCC([C@H](NC(=O)OCc2ccccc2)C(=O)Nc2cccc(CN)c2)CC1` here?
A: > 99.5 µM
